Assay results reported in publication PMC12292233, “Effects of 2-Hydroxypropyl-β-Cyclodextrin on the Antioxidant Efficiency of Some Gallic Acid Derivatives in Soybean Oil-in-Water Emulsions” (Antioxidants, 2025).

Tests used:
[1] = Kinetics of lipid oxidation (conjugated dienes, AOCS Ti 1a 64) in soybean oil-in-water emulsions; conditions: T = 60 °C; for relative efficiency order in inhibiting lipid peroxidation: 1:9 O/W emulsion, time to 0.5% increase in conjugated dienes; for relative efficiency order in inhibiting lipid peroxidation / effect of addition of HPCD on oxidative stability of the emulsion loaded with the antioxidant: ΦI = 0.008, [AO] = 0.1 mM
Procedure: The 1:9 oil-in-water emulsions were prepared by mixing 1 mL of stripped soybean oil and 9 mL of buffered aqueous solution (citric–citrate buffer 0.04 M pH 3.0) and different amounts of the surfactant Tween 20 (ΦI = Vsurfactant/Vemulsion = 0.005 − 0.04). Emulsions prepared without antioxidants were used as controls. In the others, the antioxidants GA, PG, OG, and LG were added to the aqueous (GA, PG) or oil (OG, LG) phases. The mixtures were stirred for at least 60 s at 20000 rpm at room temperature by employing a high-speed rotor (Polytron PT 1600 E, Kinematica, Fisher Scientific S.L., Madrid, Spain). All emulsions were prepared in triplicate and reported values are average.
The kinetics of the lipid peroxidation of soybean oil-in-water emulsions were monitored by determining the variation in the formation of conjugated dienes (CDs) with time according to the AOCS Official Method Ti 1a 64 in both the absence (control) and the presence of antioxidants (stoichiometric [AO] = 10^−4 M). Briefly, 1:9 O/W emulsions (ΦI = 0.008) were transferred to 25 mL screw-capped erlenmeyer flasks and were placed in an orbital shaker (Incubator Heidolph 1000 orbital stirrer, Heidolph Scientific Products GmbH, Schwabach, Germany) equipped with a Heidolph thermostat 1010 to the control temperature at 148 rpm and T = 60 °C (±1 °C) in the dark.
Aliquots (25 µL) of the emulsions were removed periodically and diluted to 10 mL with 2-propanol, and the absorbance was measured at λ = 233 nm. The percentage of conjugated dienes (%CD) was determined, as described in the literature, by employing Equation (18), where Coil stands for the concentration of soybean oil in the total volume of the emulsion (density for soybean oil = 0.93 g/mL; T = 25 °C).(18) %CD=1.0769A233nm/Coil(g/L)
The relative efficiency of the antioxidants under the different experimental conditions was quantified by measuring the time needed to increase the CD content by 0.5% (dashed line in Figure 7). We have previously shown that these values are equal to those for the induction period determined from the intersection point of the two linear segments defining the inhibited and uninhibited (propagation) steps [28].

[2] = Distribution of antioxidants in intact soybean oil-in-water emulsions (16-ArN2+ chemical probe, pseudophase kinetic model); assay type: physicochemical; conditions: for PO^I, partition constant oil-interfacial / PW^I, partition constant water-interfacial / PW^I (app), partition constant water-interfacial: soybean oil-in-water emulsion, Tween 20, T = 25.0 °C; for order of percentage of AO in the interfacial region: at any particular ΦI value
Procedure: Emulsions contain three regions (oil, interface, and aqueous) with distinct solvent properties, and antioxidants are partitioned between them to different extents depending on their hydrophobicity (Figure 4). To prevent disturbance of the existing equilibria, the partition constants were evaluated in the intact emulsions using a well-established chemical method based on the reaction between a chemical probe, 4-hexadecylbenzenediazonium (16-ArN2^+), and the antioxidants. Kinetic results are then analyzed using a pseudophase kinetic model.
The method, along with its assumptions, advantages, and limitations, are described in detail elsewhere; only the relevant parts will be summarized here. 16-ArN2^+ is specifically designed as a water-insoluble chemical probe due to its long hydrophobic tail but with an ionic head group that makes it oil-insoluble. Thus, the reactive (-N2^+) group is located exclusively in the interfacial region. The rate of its reaction with the antioxidant depends on the effective concentration of the antioxidant in that region, which, in turn, depends on its distribution (Figure 4). The partition constants of the antioxidant between the water interfacial (PW^I) and the oil interfacial (PO^I) regions are described by Equations (10) and (11), respectively, where the magnitudes within parenthesis indicate the local concentrations given in moles per liter for a specific region.(10) PWI=(AOI)/(AOW) (11) POI=(AOI)/(AOO)
By employing the formalism of the pseudophase kinetic model, mathematical equations describing the relationships between the measured rate constant (kobs) for the reaction involving 16-ArN2^+ and the AOs and the partition constants can be derived, as was shown in our previous published work. Equation (12) was employed for the AOs, which are distributed between the three regions. Equation (12) can be simplified to Equation (13) for those antioxidants that only partition between the oil and the interfacial regions.(12) kobs=AOTkIPWIPOI/ΦOPWI+ΦIPWIPOI+ΦWPOI (13) kobs=kIAOTPOI/ΦIPOI+ΦO
With the partition constants known, the percentage of AOs at the interface can be determined, and the effective concentration of AOs in each region can be determined straightforwardly by employing Equations (14)–(16).(14) %AOI=100ΦIPWIPOI/ΦOPWI+ΦIPWIPOI+ΦWPOI (15) %AOI=100ΦIPOI/ΦIPOI+ΦO (16) (AOI)=%AOIAOT/ΦI
The application of the pseudophase kinetic model described above requires the determination of the variation in the observed rate constant (kobs) for the reaction between the chemical probe (16ArN2^+) and the antioxidants with the surfactant concentration. Because emulsions are opaque, a special protocol based on a derivatization method has been used to determine the kobs values. Briefly, unreacted arenediazonium ions were rapidly quenched by employing a suitable coupling agent (N-(1-naphthyl)ethylenediammine, NED), leading to the formation of a stable azo dye (Figure 5). The absorbance of the azo dye formed is proportional to the concentration of the unreacted 16ArN2^+ present in the reaction mixture. Further information regarding the experimental procedure is provided in a previous publication.
The kobs values were determined by fitting the absorbance–time data pairs to the pseudo-first-order kinetic equation (Equation (17), where At, A∞, and A0 stand for the absorbance values at time t, infinitive time, and zero time, respectively).(17) lnAt−A∞=lnA0−A∞−kobst
The distribution of the antioxidants in the intact emulsions was assessed through the analysis of the variation in the observed rate constants (kobs) for the reaction between the chemical probe 16-ArN2^+ and the AOs with the emulsifier volume fraction ΦI (Figure 9). Details of this method can be found elsewhere. For all AOs, kobs values decrease asymptotically 3–6 times upon increasing ΦI from ΦI = 0.005 to ΦI = 0.039. […]

[3] = DPPH radical scavenging activity of gallates in absence and presence of HPCD; assay type: biochemical; conditions: values given as 10^6 × EC50, T = 25 ± 1 °C, reaction time 3600 s, aqueous citric acid/citrate (0.04 M, pH 3)-methanol 50:50 v/v
Procedure: The radical scavenging activity of gallates was obtained by employing the free radical 2,2-diphenyl-1-pycrilhydrazyl DPPH^• and by following the method described by García-Perez et al.. The absorbance decrease in DPPH^• (λ= 515 nm) was monitored in the absence and the presence of CD for different concentrations of AOs ([AO] = […]) in an aqueous–methanolic solution (5:5, v/v) at T = 25 °C. […] The radical scavenging activity was measured in terms of the EC50 values, defined as the gallate concentration required to decrease DPPH^• radicals by half.

[4] = Partition constant in soybean oil-water binary mixtures; assay type: physicochemical; conditions: T = 25.0 °C
Procedure: Table 2 Partition constants values in soybean oil–water binary mixtures (PW^O) and in soybean oil-in-water emulsions (PW^I and PO^I) for gallates in the absence and the presence of HP-CD; T = 25.0 °C.

[5] = Water solubility (statement); assay type: physicochemical
[6] = parameters: method as in PMID 34037013, PMID 25180889, PMID 28248497; conditions: based on oxygen uptake; ratio oleic:linoleic:linolenic; ref [25],[26],[27]; cited from earlier work

| Compound | PO^I, partition constant oil-interfacial ([2]; [HPCD] = 0) | PO^I, partition constant oil-interfacial ([2]; [HPCD] = 0.013 M) | order of percentage of AO in the interfacial region [2] | EC50 ([3]; 0 M HPCD) | EC50 ([3]; 1.1·10^−2 M HPCD) | relative efficiency order in inhibiting lipid peroxidation [1] | effect of addition of HPCD on oxidative stability of the emulsion loaded with the antioxidant ([1]; [HP-CD] = 0.013 M) | relative oxidation rate [6] | further results |
| --- | --- | --- | --- | --- | --- | --- | --- | --- | --- |
| 2-Hydroxypropyl-β-cyclodextrin [HPCD] | – | – | – | – | – | – | – | – | effect on the kinetics of oxidation in absence of antioxidants ([1]; 1:9 soybean emulsions without antioxidant, [HP-CD] = 0.013 M): no effect |
| CCCCOC(=O)c1cc(O)c(O)c(O)c1 [BG, butyl gallate] | 238 ± 8 | 174 ± 9 | %BGI > %PGI > %LGI ≈ %OGI | 6.02 ± 0.03 µM | 5.35 ± 0.04 µM | LG ≈ OG < PG < < BG | decreases the oxidative stability slightly | – | PW^I, partition constant water-interfacial ([2]; [HPCD] = 0): 772 ± 33; PW^I (app), partition constant water-interfacial ([2]; [HPCD] = 0.013 M): 565 ± 9; PW^O, partition constant [4]: 3.25 ± 0.03; relative efficiency order in inhibiting lipid peroxidation ([1]; listed as butyl gallate): highest antioxidant efficiency |
| O=C(O)c1cc(O)c(O)c(O)c1 [GA, gallic acid] | – | – | – | 8.36 ± 0.28 µM | 7.84 ± 0.08 µM | – | – | – | – |
| CCCCCCCCCCCCOC(=O)c1cc(O)c(O)c(O)c1 [LG, lauryl gallate] | 27 ± 9 | 25 ± 2 | %BGI > %PGI > %LGI ≈ %OGI | – | – | LG ≈ OG < PG < < BG | negligible effect | – | solubility in water [5]: water insoluble |
| CCCCCCCCOC(=O)c1cc(O)c(O)c(O)c1 [OG, octyl gallate] | 26 ± 7 | 25 ± 5 | %BGI > %PGI > %LGI ≈ %OGI | 9.02 ± 1.05 µM | 8.27 ± 0.2 µM | LG ≈ OG < PG < < BG | negligible effect | – | solubility in water [5]: water insoluble |
| CCCOC(=O)c1cc(O)c(O)c(O)c1 [PG, Propyl gallate] | 450 ± 26 | 371 ± 15 | %BGI > %PGI > %LGI ≈ %OGI | 6.09 ± 0.12 µM | 5.57 ± 0.01 µM | LG ≈ OG < PG < < BG | decreases the oxidative stability slightly | – | PW^I, partition constant water-interfacial ([2]; [HPCD] = 0): 382 ± 18; PW^I (app), partition constant water-interfacial ([2]; [HPCD] = 0.013 M): 315 ± 14; PW^O, partition constant [4]: 0.85 ± 0.01 |
| CCCCC/C=C\C/C=C\CCCCCCCC(=O)O [linoleic, linoleic acid] | – | – | – | – | – | – | – | ~70 | – |
| CC/C=C\C/C=C\C/C=C\CCCCCCCC(=O)O [linolenic, linolenic acid] | – | – | – | – | – | – | – | ~100 | – |
| CCCCCCCC/C=C\CCCCCCCC(=O)O [oleic, oleic acid] | – | – | – | – | – | – | – | approximately 1 | – |
